Reference: patent publication EP1978972B1, “USE OF ALKYLGLUCOSIDE ESTERS AS BETA-DEFENSIN INDUCERS” (Pierre Fabre Dermo-Cosmétique, priority 2006, dated 2007)

Test system: LL-37
Assay: Induction of LL-37 gene expression in skin explant, systemic treatment, quantitative RT-PCR
Assay type: cell-based, human
Conditions: 30 µg/ml
From the text: Il est connu de WO 97/45101 que les esters d'α-alkylglucoside peuvent être utilisés comme agent anti-microbien et/ou anti-fongique pour agir en tant que conservateur dans une composition, pour la préserver d'un développement microbien. […]

Substance: laurate de butylglucoside [αβ-LBG brut]
- FI, LL-37 (2 h): 6
- FI, LL-37 (up to 24 h, in words): reste stable jusqu'à 24 h
